Experimental findings from US8765944B2, “Compounds for the treatment of hepatitis C” (priority 2010, dated 2014) are described below.

This test deals with HCV pseudoparticles. Nature of the test: HCV pseudoparticle infection assay (luciferase reporter, Huh7 cells). Format: cell-based, HCV (genotype 1b E1 and E2 envelope). To be noted: Hepatitis C virus, genotype 1b, Huh-7, 48 h, HCV pseudoparticles (genotype 1b), luciferase activity 2 days after infection.

As for `COc1ccc(S(=O)(=O)N2CCN(c3nc(Nc4ccc(C(=O)NS(=O)(=O)C5(CN(C)C)CC5)cc4)nc(OCC(F)(F)F)n3)CC2)cc1` [Example 8035], the EC50 (class) was 1000 to 5000 nM.
Take `CC1(C)CCCN1CC1(S(=O)(=O)NC(=O)c2ccc(Nc3nc(NC4(c5ccc(Cl)cc5)CC4)nc(OCC(F)(F)F)n3)cc2)CC1` [Example 1016]: under “class”, the EC50 lay in the range of 0.5 to 100 nM.
`C=CS(=O)(=O)NC(=O)CNC(=O)c1ccc(Nc2nc(NC3(c4ccc(Cl)cc4)CC3)nc(OCC(F)(F)F)n2)cc1` [Example 2010] showed an EC50 of 67 nM. Besides, for the setting “class”, the EC50 fell in the range of 0.5 to 100 nM.
Take `CC(C)S(=O)(=O)NC(=O)c1ccc(Nc2nc(NC3(c4ccc(Cl)cc4)CC3)nc(OCC(F)(F)F)n2)cc1` [Example 1005]: the EC50 (class) is 0.5 to 100 nM.
As to `CCS(=O)(=O)NC(=O)c1ccc(Nc2nc(NC3(c4ccc(Cl)cc4)CC3)nc(OCC(F)(F)F)n2)cc1` [Example 1003], the half-maximal effective concentration (EC50) (class) lay within 0.5 to 100 nM.
For the setting “class”, `O=C(NS(=O)(=O)c1ccc(Nc2nc(NC3(c4ccc(Cl)cc4)CC3)nc(OCC(F)(F)F)n2)cc1)C1(CN2CCCC2)CC1` [Example 3001] yielded an EC50 of 1000 to 5000 nM.
With `O=C(CCNC(=O)c1ccc(Nc2nc(NC3(c4ccc(Cl)cc4)CC3)nc(OCC(F)(F)F)n2)cc1)NS(=O)(=O)C1CC1` [Example 2021], the EC50 (class) lay in the range of 0.5 to 100 nM.
Consider `C=CS(=O)(=O)NC(=O)C1(CNC(=O)c2ccc(Nc3nc(NC4(c5ccc(Cl)cc5)CC4)nc(OCC(F)(F)F)n3)cc2)CC1` [Example 2072], for which the EC50 (class) fell in the range of 0.5 to 100 nM.
With `O=C(NCCS(=O)(=O)NC(=O)c1ccc(Nc2nc(NC3(c4ccc(Cl)cc4)CC3)nc(OCC(F)(F)F)n2)cc1)c1cccnc1` [Example 1043], the concentration giving a half-maximal response (EC50) (class) was 0.5 to 100 nM.
Turning to `CCCC1(S(=O)(=O)NC(=O)C2(CNC(=O)c3ccc(Nc4nc(NC5(c6ccc(Cl)cc6)CC5)nc(OCC(F)(F)F)n4)cc3)CC2)CC1` [Example 2077], the EC50 (class) is 0.5 to 100 nM.
The same measure, in the same setting: then `COCCS(=O)(=O)NC(=O)C(C)(C)CNC(=O)c1ccc(Nc2nc(NC3(c4ccc(Cl)cc4)CC3)nc(OCC(F)(F)F)n2)cc1` [Example 2094], with 0.5 to 100 nM.
Turning to `O=C(NS(=O)(=O)C1(C(=O)Nc2ccccc2)CC1)c1ccc(Nc2nc(NC3(c4ccc(Cl)cc4)CC3)nc(OCC(F)(F)F)n2)cc1` [Example 8015], the EC50 (class) lay within 0.5 to 100 nM.
Take `CC(C)S(=O)(=O)NC(=O)[C@@H](C)NC(=O)CCCNC(=O)c1ccc(Nc2nc(NC3(c4ccc(Cl)cc4)CC3)nc(OCC(F)(F)F)n2)cc1` [Example 2052]: where the note is “class”, the EC50 was 0.5 to 100 nM.
Where the note is “class”, `O=C(NS(=O)(=O)C1(CN2CC3CC3C2)CC1)c1ccc(Nc2nc(NC3(c4ccc(Cl)cc4)CC3)nc(OCC(F)(F)F)n2)cc1` (stereo not shown) [Example 1024] yielded a concentration for a half-maximal effect (EC50) of 0.5 to 100 nM.
Where the note is “class”, `O=C(NCC1(CN2CCCC2)CC1)c1ccc(Nc2nc(NC3(c4ccc(C(=O)NS(=O)(=O)C5CC5)cc4)CC3)nc(OCC(F)(F)F)n2)cc1` [Example 7001, N-(cyclopropylsulfonyl)-4-(1-(4-(4-((1-(pyrrolidin-1-ylmethyl)cyclopropyl)methylcarbamoyl)phenylamino)-6-(2,2,2-trifluoroethoxy)-1,3,5-triazin-2-ylamino)cyclopropyl)benzamide] came in with an EC50 of 0.5 to 100 nM.
Turning to `CN(C)S(=O)(=O)NC(=O)CCNC(=O)c1ccc(Nc2nc(NC3(c4ccc(Cl)cc4)CC3)nc(OCC(F)(F)F)n2)cc1` [Example 2022], the half-maximal effective concentration (EC50) (class) was 0.5 to 100 nM.
`CN(C)CC1(C(=O)NS(=O)(=O)c2ccc(Nc3nc(NC4(c5ccc(Cl)cc5)CC4)nc(OCC(F)(F)F)n3)cc2)CC1` [Example 3006] returned an EC50 of 2700 nM. Also, the concentration for a half-maximal effect (EC50) (class) was 1000 to 5000 nM.
In turn, `CC(C)S(=O)(=O)NC(=O)CCNC(=O)CCCNC(=O)c1ccc(Nc2nc(NC3(c4ccc(Cl)cc4)CC3)nc(OCC(F)(F)F)n2)cc1` [Example 2061] registered an EC50 (class) of 0.5 to 100 nM.
In the case of `O=C(NS(=O)(=O)c1ccc(F)cc1)c1ccc(Nc2nc(NC3(c4ccc(Cl)cc4)CC3)nc(OCC(F)(F)F)n2)cc1` [Example 8013], the EC50 (class) fell in the range of 0.5 to 100 nM.
Regarding `O=C(NS(=O)(=O)c1ccc(Nc2nc(NC3(c4ccc(Cl)cc4)CC3)nc(OCC(F)(F)F)n2)cc1)C1(CN2CCOCC2)CC1` [Example 3003], the EC50 was 822 nM. For the same molecule, the EC50 (class) is 100 to 1000 nM.
For the molecule `CC(=O)N1CCN(CC2(S(=O)(=O)NC(=O)c3ccc(Nc4nc(NC5(c6ccc(Cl)cc6)CC5)nc(OCC(F)(F)F)n4)cc3)CC2)CC1` [Example 1018], the concentration for a half-maximal effect (EC50) (class) lay within 0.5 to 100 nM.
Molecule `C=C[C@@H]1C[C@]1(NC(=O)CCCNC(=O)c1ccc(Nc2nc(NC3(c4ccc(Cl)cc4)CC3)nc(OCC(F)(F)F)n2)cc1)C(=O)NS(=O)(=O)C1CC1` [Example 2032] yielded an EC50 of 1.3 nM. Besides, the concentration for a half-maximal effect (EC50) (class) lay in the range of 0.5 to 100 nM.
With `CC(C)C(=O)NCCS(=O)(=O)NC(=O)c1ccc(Nc2nc(NC3(c4ccc(Cl)cc4)CC3)nc(OCC(F)(F)F)n2)cc1` [Example 1038], the EC50 (class) fell in the range of 0.5 to 100 nM.
Molecule `COc1ccc(C(=O)N2CCN(c3nc(Nc4ccc(C(=O)NS(=O)(=O)C5(CN(C)C)CC5)cc4)nc(OCC(F)(F)F)n3)CC2)cc1` [Example 8041] had a 50% effective concentration (EC50) (class) of 1000 to 5000 nM.
`C=C[C@@H]1C[C@]1(NC(=O)C(C)(C)CNC(=O)c1ccc(Nc2nc(NC3(c4ccc(Cl)cc4)CC3)nc(OCC(F)(F)F)n2)cc1)C(=O)NS(=O)(=O)C(C)(C)C` [Example 2082] gave an EC50 (class) of 0.5 to 100 nM.
As to `O=C(NS(=O)(=O)C1(CN2CCCC2)CC1)c1ccc(Nc2nc(NC3(c4ccc(Cl)cc4)CC3)nc(OCC(F)(F)F)n2)cc1` [Example 1011], the EC50 was 0.48 nM. Under “class”, this molecule came in with an EC50 of 0.5 to 100 nM.
In the case of `CC(C)S(=O)(=O)NC(=O)[C@H](C)NC(=O)CCCNC(=O)c1ccc(Nc2nc(NC3(c4ccc(Cl)cc4)CC3)nc(OCC(F)(F)F)n2)cc1` [Example 2055], the EC50 (class) lay in the range of 0.5 to 100 nM.
`Cn1cnc(C[C@H](NC(=O)c2ccc(Nc3nc(NC4(c5ccc(Cl)cc5)CC4)nc(OCC(F)(F)F)n3)cc2)C(=O)N[C@]2(C(=O)NS(=O)(=O)C(C)(C)C)C[C@H]2C2CC2)c1` [Example 8021]: for the setting “class”, the 50% effective concentration (EC50) is 0.5 to 100 nM.
On the same count and under the same terms, then `O=C(CCCNC(=O)c1ccc(Nc2nc(NC3(c4ccc(Cl)cc4)CC3)nc(OCC(F)(F)F)n2)cc1)N[C@]1(C(=O)NS(=O)(=O)C2CC2)C[C@H]1C1CC1(F)F` (stereo partly shown) [Example 2037], with 0.5 to 100 nM; and `CN(C)S(=O)(=O)NC(=O)C(C)(C)CNC(=O)c1ccc(Nc2nc(NC3(c4ccc(Cl)cc4)CC3)nc(OCC(F)(F)F)n2)cc1` [Example 2093], with 0.5 to 100 nM.
In turn, `COCC1(S(=O)(=O)N(C)C(=O)c2ccc(Nc3nc(OC)nc(N(C)C4(c5ccc(Cl)cc5)CC4)n3)cc2)CC1` [Example 8009] returned an EC50 (class) of 1000 to 5000 nM.
Where the note is “class”, `C[C@H](NC(=O)CCCNC(=O)c1ccc(Nc2nc(NC3(c4ccc(Cl)cc4)CC3)nc(OCC(F)(F)F)n2)cc1)C(=O)NS(=O)(=O)C1CC1` [Example 2057] gave an EC50 of 0.5 to 100 nM.
For `NC(=O)c1ccc(Nc2nc(NC3(C(=O)NS(=O)(=O)C4CC4)CC3)nc(OCC(F)(F)F)n2)cc1` [Example 8002], the EC50 (class) fell in the range of 1000 to 5000 nM.
Turning to `C=C[C@@H]1C[C@]1(NC(=O)C1(CNC(=O)c2ccc(Nc3nc(NC4(c5ccc(Cl)cc5)CC4)nc(OCC(F)(F)F)n3)cc2)CC1)C(=O)NS(=O)(=O)C1CCC1` [Example 2069], where the note is “class”, the concentration for a half-maximal effect (EC50) was 0.5 to 100 nM.
For the setting “class”, `Cc1ccccc1S(=O)(=O)NC(=O)c1ccc(Nc2nc(NC3(c4ccc(Cl)cc4)CC3)nc(OCC(F)(F)F)n2)cc1` [Example 8012] returned an EC50 of 0.5 to 100 nM.
Still for that read-out and setting: then `CN1CCN(CC2(S(=O)(=O)NC(=O)c3ccc(Nc4nc(NC5(c6ccc(Cl)cc6)CC5)nc(OCC(F)(F)F)n4)cc3)CC2)CC1` [Example 1020], with 0.5 to 100 nM.
Molecule `Cn1cnc(C[C@H](NC(=O)c2ccc(Nc3nc(NC4(c5ccc(Cl)cc5)CC4)nc(OCC(F)(F)F)n3)cc2)C(=O)NS(=O)(=O)C2CC2)c1` [Example 8018] came in with an EC50 (class) of 0.5 to 100 nM.
On the same count and under the same terms, then `CCCC1(S(=O)(=O)NC(=O)C(C)(C)CNC(=O)c2ccc(Nc3nc(NC4(c5ccc(Cl)cc5)CC4)nc(OCC(F)(F)F)n3)cc2)CC1` [Example 2092], with 0.5 to 100 nM.
`CC(C)S(=O)(=O)N1CCN(c2nc(Nc3ccc(C(=O)NS(=O)(=O)C4(CN(C)C)CC4)cc3)nc(OCC(F)(F)F)n2)CC1` [Example 8026] displayed a 50% effective concentration (EC50) (class) of 1000 to 5000 nM.
The same measure, in the same setting: with `CC(=O)NS(=O)(=O)CCNC(=O)c1ccc(Nc2nc(NC3(c4ccc(Cl)cc4)CC3)nc(OCC(F)(F)F)n2)cc1` [Example 4000] the figure was 0.5 to 100 nM; with `CS(=O)(=O)NC(=O)CCCCNC(=O)c1ccc(Nc2nc(NC3(c4ccc(Cl)cc4)CC3)nc(OCC(F)(F)F)n2)cc1` [Example 2011], 0.5 to 100 nM.
As to `CC(C)(C)OC(=O)N1CCC(C(=O)NCCS(=O)(=O)NC(=O)c2ccc(Nc3nc(NC4(c5ccc(Cl)cc5)CC4)nc(OCC(F)(F)F)n3)cc2)CC1` [Example 1042], where the note is “class”, the EC50 was 0.5 to 100 nM.
As for `CCN(CC)CC1(C(=O)NS(=O)(=O)c2ccc(Nc3nc(NC4(c5ccc(Cl)cc5)CC4)nc(OCC(F)(F)F)n3)cc2)CC1` [Example 3004], the half-maximal effective concentration (EC50) came to 1640 nM. In addition, the EC50 (class) lay within 1000 to 5000 nM.
Turning to `CC(C)(C)COC(=O)NCCS(=O)(=O)NC(=O)c1ccc(Nc2nc(NC3(c4ccc(Cl)cc4)CC3)nc(OCC(F)(F)F)n2)cc1` [Example 1046], the EC50 (class) is 0.5 to 100 nM.
For the molecule `O=C(NS(=O)(=O)C1(CN2CCN(c3ccncc3)CC2)CC1)c1ccc(Nc2nc(NC3(c4ccc(Cl)cc4)CC3)nc(OCC(F)(F)F)n2)cc1` [Example 1019], under “class”, the concentration giving a half-maximal response (EC50) is 0.5 to 100 nM.
`CC(C)S(=O)(=O)NC(=O)C1(CNC(=O)c2ccc(Nc3nc(NC4(c5ccc(Cl)cc5)CC4)nc(OCC(F)(F)F)n3)cc2)CC1` [Example 2074] showed an EC50 (class) of 0.5 to 100 nM.
With `O=C(NCC1(C(=O)NS(=O)(=O)C2CC2)CC1)c1ccc(Nc2nc(NC3(c4ccc(Cl)cc4)CC3)nc(OCC(F)(F)F)n2)cc1` [Example 2070], where the note is “class”, the EC50 was in the range of 0.5 to 100 nM.
In the case of `CC(C)(C)OC(=O)NCCS(=O)(=O)NC(=O)c1ccc(Nc2nc(NC3(c4ccc(Cl)cn4)CC3)nc(OCC(F)(F)F)n2)cc1` [Example 8042], for the setting “class”, the EC50 was in the range of 0.5 to 100 nM.
Consider `Cc1ccc(C(=O)N2CCN(c3nc(Nc4ccc(C(=O)NS(=O)(=O)C5(CN(C)C)CC5)cc4)nc(OCC(F)(F)F)n3)CC2)cc1` [Example 8027], for which the EC50 (class) is 1000 to 5000 nM.
